EC50 data for 22 molecules are collected here from patent US20250268903A1, “RXFP1 AGONISTS” (BRISTOL-MYERS SQUIBB COMPANY, priority 2021, published 2025).

As usually defined, the EC50 is the concentration needed to bring the measured effect to its halfway point. A low value points to an effect from little substance.

In the test the target is T1, human RXFP1 (Homo sapiens, UniProt Q9HBX9).
T1 construct: expressed in transfected cells
T1 sequence (Q9HBX9 1-757): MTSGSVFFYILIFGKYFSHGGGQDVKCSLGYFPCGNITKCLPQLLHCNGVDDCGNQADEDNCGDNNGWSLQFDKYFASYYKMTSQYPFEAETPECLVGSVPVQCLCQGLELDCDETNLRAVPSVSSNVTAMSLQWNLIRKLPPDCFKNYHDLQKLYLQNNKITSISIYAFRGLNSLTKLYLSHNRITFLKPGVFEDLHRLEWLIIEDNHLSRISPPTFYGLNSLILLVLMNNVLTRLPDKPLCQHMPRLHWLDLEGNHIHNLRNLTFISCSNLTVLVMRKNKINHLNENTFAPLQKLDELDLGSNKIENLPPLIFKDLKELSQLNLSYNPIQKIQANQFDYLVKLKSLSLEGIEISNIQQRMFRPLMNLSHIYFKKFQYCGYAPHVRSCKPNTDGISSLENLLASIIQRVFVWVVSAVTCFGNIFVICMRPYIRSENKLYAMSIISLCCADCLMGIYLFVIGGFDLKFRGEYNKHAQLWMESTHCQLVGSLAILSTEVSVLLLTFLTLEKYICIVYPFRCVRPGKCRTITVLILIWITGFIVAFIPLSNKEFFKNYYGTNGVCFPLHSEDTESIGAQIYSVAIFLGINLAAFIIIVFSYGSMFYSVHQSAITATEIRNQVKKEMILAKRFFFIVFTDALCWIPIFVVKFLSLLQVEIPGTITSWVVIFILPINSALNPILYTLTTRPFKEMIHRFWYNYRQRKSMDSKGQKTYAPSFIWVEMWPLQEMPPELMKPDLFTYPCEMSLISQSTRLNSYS
In words: hRXFP1 HEK293 cAMP assay (HTRF). Particulars: HEK293 cells stably expressing human RXFP1, 30 min at room temperature. Type of test: cell-based. In short, it runs like this:
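HEK293 cells stably expressing human RXFP1 were suspended in HBSS (Ca/Mg) with 20 mM HEPES, 0.05% BSA and 0.5 mM IBMX, then treated with compounds (0.010 nM–50 μM, 2% DMSO final) for 30 min at room temperature. Intracellular cAMP was measured by HTRF, and potency was derived from 4-parameter logistic fits.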
With `COc1ccc(COC2CC2)cc1C(=O)N[C@@H]1C2CCC(/C2=C/C2CC2)[C@@H]1C(=O)Nc1ccc(F)c(C(F)(F)F)c1` (stereo partly drawn) [Example 19, (2S,3R,7Z)-3-[5-(cyclopropoxymethyl)-2-methoxybenzamido]-7-(cyclopropylmethyli-dene)-N-[4-fluoro-3-(trifluoromethyl)phe-nyl]bicyclo[2.2.1]hept-ane-2-carboxamide], the midpoint of the response, the EC50, lay at 125 nM. The molecule `COc1ccc(C2CC2C(=O)O)cc1C(=O)N[C@@H]1C2CCC(/C2=C/C(F)(F)F)[C@@H]1C(=O)Nc1ccc(F)c(C(F)(F)F)c1` (single isomer, unassigned) [Example 63] had an EC50 of 4420 nM.

For the molecule `COC(=O)[C@@H]1CCN(C(=O)Cc2ccc(OC)c(C(=O)NC3C(C(=O)Nc4ccc(F)c(C(F)(F)F)c4)[C@H]4CC[C@@H]3/C4=C\C3CC3)c2)C1` (stereo partly shown) [Example 356], the EC50 was found to be 4020 nM.

On to “(1R,4R,7Z)-N-[4- fluoro-3- (trifluoromethyl) phenyl]-3-[5-(3- hydroxypropyl)-2- methoxybenzamido]- 7-[(oxan-3- yl)methylidene] bicyclo[2.2.1]heptane- 2-carboxamide [Example 263]”, for which the response was half-maximal at 318 nM (EC50). Molecule `COc1ccc(CCC(C)(C)O)cc1C(=O)NC1C2CCC(/C2=C/C2CCCOC2)[C@@H]1C(=O)Nc1ccc(F)c(C(F)(F)F)c1` (single isomer, unassigned) [Example 173, (7Z)-N-[4-fluoro-3-(trifluoromethyl)phe-nyl]-3-[5-(3-hydroxy-3-methylbutyl)-2-methoxybenzamido]-7-[(oxan-3-yl)methylidene]bicy-clo[2.2.1]heptane-2-carboxamide] came in with an EC50 of 186 nM.

`COc1ccc(S(=O)(=O)N2CCN3C(=O)OCC3C2)cc1C(=O)N[C@H]1[C@@H](C(=O)Nc2ccc(F)c(C(F)(F)F)c2)[C@H]2CC[C@@H]1/C2=C\C(F)(F)F` (stereo partly drawn) [Example 220, (1R,2S,3R,4R,7Z)-N-[4-fluoro-3-(trifluoromethyl)phenyl]-3-[2-methoxy-5-({3-oxo-hexahydro-1H-[1,3]oxazolo[3,4-a]piperazin-7-yl}sulfonyl)benzamido]-7-(2,2,2-trifluoroethylidene) bicyclo[2.2.1] heptane-2-carboxamide] yielded a concentration giving a half-maximal response (EC50) of 459 nM. The molecule `COc1c(F)cc(C2CC3CC(CO)CC3C2)cc1C(=O)N[C@H]1[C@@H](C(=O)Nc2ccc(F)c(C(F)(F)F)c2)[C@H]2CC[C@@H]1/C2=C\C1CCCC1` (stereo partly drawn) [Example 370, (1R,2S,3R,4R,7Z)-7-(cyclopentyl-methylidene)-N-[4-fluoro-3-(trifluoromethyl)phenyl]-3-{3-fluoro-5-[5-(hydroxymethyl)-octahydropentalen-2-yl]-2-methoxybenzamido} bicyclo[2.2.1]heptane-2-carboxamide] showed an EC50 of 9.7 nM. As for `COc1ccc(COC2CC=CC2)cc1C(=O)N[C@H]1[C@@H](C(=O)Nc2ccc(F)c(C(F)(F)F)c2)[C@H]2CC[C@@H]1/C2=C\C1CC1` [Example 285, (1R,2S,3R,4R,7Z)-3-{5-[(cyclopent-3-en-1-yloxy)methyl]-2-methoxybenzamido}-(cyclopropylmethyl-idene)-N-[4-fluoro-3-(trifluoromethyl)phenyl]bicyclo [2.2.1]heptane-2-carboxamide], the figure is 226 nM; as for `COc1ccc(CCC(C)(C)O)cc1C(=O)NC1C2CCC(/C2=C/C2CC(F)(F)C2)[C@@H]1C(=O)Nc1ccc(F)c(C(F)(F)F)c1` (stereo partly drawn) [Example 160, (2S,3R,7Z)-7-[(3,3-difluorocyclobutyl)methylidene]-N-[4-fluoro-3-(trifluoromethyl)phe-nyl]-3-[5-(3-hydroxy-3-methylbutyl)-2-methoxybenzamido] bicyclo[2.2.1]heptane-2-carboxamide], 51 nM; as for `COc1ccc(C2CC3CC(O)CC32)cc1C(=O)N[C@H]1[C@@H](C(=O)Nc2ccc(F)c(C(F)(F)F)c2)[C@H]2CC[C@@H]1/C2=C\C1CC1` (single isomer, unassigned) [Example 343], 75.2 nM. The value for “(1R,4R,7Z)-7-(2- cyclobutylethylidene)- N-[4-fluoro-3- (trifluoromethyl) phenyl]-3-[5-(3- hydroxy-3- methylbutyl)-2- methoxybenzamido] bicyclo[2.2.1]heptane- 2-carboxamide [Example 262]” was 197 nM; that for `COc1ccc(C2CC(CO)C2)cc1C(=O)N[C@H]1[C@@H](C(=O)Nc2ccc(F)c(C(F)(F)F)c2)[C@H]2CC[C@@H]1/C2=C\C1CC1` (stereo partly drawn) [Example 333, (1R,2S,3R,4R,7Z)-7-(cyclopropyl-methylidene)-N-[4-fluoro-3-(trifluoromethyl)phenyl]-3-[5-[3-(hydroxymethyl)cyclobutyl]-2-methoxybenzamido} bicyclo[2.2.1]heptane-2-carboxamide] was 62.3 nM; that for `COc1ccc(CCCC(F)F)cc1C(=O)NC1C2CCC(/C2=C/C2CCC2)[C@@H]1C(=O)Nc1ccc(F)c(C(F)(F)F)c1` (stereo partly shown) [Example 196, (7Z)-7-(cyclobutylmethyl-idene)-3-[5-(4,4-difluorobutyl)-2-methoxybenzamido]-N-[4-fluoro-3-(trifluoromethyl)phe-nyl]bicyclo[2.2.1] heptane-2-carboxamide] was 32 nM. For the molecule `COc1ccc(C2CC2C(=O)N2CCC(O)CC2)cc1C(=O)N[C@H]1[C@@H](C(=O)Nc2ccc(F)c(C(F)(F)F)c2)[C@H]2CC[C@@H]1/C2=C\C(F)(F)F` (single isomer, unassigned) [Example 326], the EC50 is 4010 nM. `COc1ccc(C2CC3CC(O)CC32)cc1C(=O)N[C@H]1[C@@H](C(=O)Nc2ccc(F)c(C(F)(F)F)c2)[C@H]2CC[C@@H]1/C2=C\C1CC1` (single isomer, unassigned) [Example 342] displayed an EC50 of 27.8 nM. Take “(1R,4R,7Z)-N-14- fluoro-3- (trifluoromethyl) phenyl]-3-[5-(3- hydroxy-3- methylbutyl)-2- methoxybenzamido 1-7-[(oxan-3- yl)methylidene] bicyclo[2.2.1] heptane- 2-carboxamide [Example 266]”: the EC50 amounted to 186 nM.

Regarding `COc1ccc(C(=O)NCCS(C)(=O)=O)cc1C(=O)N[C@H]1[C@@H](C(=O)Nc2ccc(F)c(C(F)(F)F)c2)[C@H]2CC[C@@H]1/C2=C\C1CC1` [Example 253, N3-[(1R,2R, 3S,4R,7Z)-7-(cyclopropylmethyl-idene)-3-{[4-fluoro-3-(trifluoromethyl)phenyl]carbamoyl}bicyclo[2.2.1]heptan-2-yl]-N1-(2-methanesulfonylethyl)-4-methoxybenzene-1,3-dicarboxamide], the EC50 came to 11.9 nM. Take `COc1ccc(CCCO)cc1C(=O)N[C@H]1[C@@H](C(=O)NCC(C)(C)C)[C@H]2CC[C@@H]1/C2=C\C1CC1` [Example 270, (1R,2S,3R,4R,7Z)-7-(cyclopropylmethyl-idene)-N-(2,2-dimethylpropyl)-3-[5-(3-hydroxypropyl)-2-methoxybenzamido] bicyclo[2.2.1]heptane-2-carboxamide]: the EC50 stood at 685 nM. `COc1ccc(C#CCOC(=O)Nc2ccccc2)cc1C(=O)N[C@@H]1C2CCC(/C2=C/C(F)(F)F)[C@@H]1C(=O)Nc1ccc(F)c(C(F)(F)F)c1` (stereo partly drawn) [Example 69, 3-(3-{[(2R,3S,7Z)-3-{[4-fluoro-3-(trifluoromethyl)phe-nyl]carbamoyl}-7-(2,2,2-trifluoroethylidene)bi-cyclo[2.2.1]heptan-2-yl]carbamoyl}-4-methoxyphenyl)prop-2-yn-1-yl N-phenylcarbamate]: the EC50 amounted to 95 nM. Turning to `CNc1ccc(CCCO)cc1C(=O)N[C@H]1[C@@H](C(=O)Nc2ccc(F)c(C(F)(F)F)c2)[C@H]2CC[C@@H]1/C2=C\C(F)(F)F` [Example 11, (1R,2S,3R,4R,Z)—N-(4-fluoro-3-(trifluoromethyl)phenyl)-3-(5-(3-hydroxypropyl)-2-(methylamino)benzamido)-7-(2,2,2-trifluoroethylidene) bicyclo[2.2.1]heptane-2-carboxamide], the EC50 turned out to be 4710 nM. The value for `COc1ccc(CCCCCCC#N)cc1C(=O)NC1C2CCC(/C2=C/C(F)(F)F)[C@@H]1C(=O)Nc1ccc(F)c(C(F)(F)F)c1` (stereo partly shown) [Example 184, (7Z)-3-[5-(6-cyanohexyl)-2-methoxybenzamido]-N-[4-fluoro-3-(trifluoromethyl)phe-nyl]-7-(2,2,2-trifluoroethylidene)bi-cyclo[2.2.1]heptane-2-carboxamide] was 252 nM. In turn, `CCCc1ccc(OC)c(C(=O)N[C@@H]2C3CCC(/C3=C/C(F)(F)F)[C@@H]2C(=O)Nc2ccc(F)c(C(F)(F)F)c2)c1` (stereo partly drawn) [Example 85, (2S,3R,7Z)-N-[4-fluoro-3-(trifluoromethyl)phe-nyl]-3-(2-methoxy-5-propylbenzamido)-7-(2,2,2-trifluoroethylidene)bi-cyclo[2.2.1]heptane-2-carboxamide] came in with an EC50 of 3000 nM.
